Measured values from patent publication US10988459B2 (priority 2015, dated 2021).

target: human RIP1 kinase domain (2-375) (Homo sapiens (Human), UniProt Q13546); experiment: biochemical; type: biochemical; conditions: tight-binding apparent inhibition constant; human RIP1 kinase domain (2-375) 50 nM, 50 uM ATP, 2 hours; read-out: Ki
Description: Example 794: RIP1 Kinase Inhibition Assays (Biochemical Assay)
The compounds of the present invention were tested for their capacity to inhibit RIP1K activity as described below.
The ability of the receptor interacting protein kinase (RIPK1) to catalyze the hydrolysis of adenosine-5′-triphosphate (ATP) is monitored using the Transcreener ADP (adenosine-5′-diphosphate) assay (BellBrook Labs). Purified human RIP1 kinase domain (2-375) (50 nM) derived from a baculovirus-infected insect cell expression system is incubated with test compounds for 2 hours in 50 mM Hepes buffer (pH 7.5) containing 30 mM MgCl2, 1 mM dithiothreitol, 50 uM ATP, 0.002% Brij-35, and 0.5% dimethyl sulfoxide (DMSO). […] The tracer bound to the antibody is displaced by the ADP generated during the RIP1K reaction, which causes a decrease in fluorescence polarization that is measured by laser excitation at 633 nm with a FP microplate reader M1000. Fractional activity was plotted against test article concentration. Using Genedata Screener software (Genedata; Basel, Switzerland), the data were fit to the tight-binding apparent inhibition constant (Ki^app) Morrison equation [Williams, J. W. and Morrison, J. F. (1979) The kinetics of reversible tight-binding inhibition. Methods Enzymol 63: 437-67]. The following equation was used to calculate fractional activity and Ki^app:
[formula] where [E]T and [I]T are the total concentrations of active enzyme and test article, respectively.
“Method” in the first column of each table refers to the synthetic method(s) used to prepare each compound as shown in the Examples above. In certain examples, chiral column retention times (min) are provided for certain stereoisomers.

Chain of human RIP1 kinase domain (2-375) (Q13546 2-375): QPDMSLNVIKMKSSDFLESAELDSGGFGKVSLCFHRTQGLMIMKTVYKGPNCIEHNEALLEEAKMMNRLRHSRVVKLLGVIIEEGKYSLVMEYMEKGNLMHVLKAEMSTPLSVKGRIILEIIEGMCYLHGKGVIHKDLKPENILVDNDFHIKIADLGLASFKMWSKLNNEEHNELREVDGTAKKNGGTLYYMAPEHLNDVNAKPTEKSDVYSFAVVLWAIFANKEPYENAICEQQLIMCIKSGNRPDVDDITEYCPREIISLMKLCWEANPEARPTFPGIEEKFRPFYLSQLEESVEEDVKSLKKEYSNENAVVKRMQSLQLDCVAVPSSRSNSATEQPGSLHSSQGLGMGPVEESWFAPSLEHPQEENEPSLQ

Ki | Compound
73.8 nM | CC[C@@]1(C)OCc2cnc(C(=O)N[C@H]3COc4ccccc4N(C)C3=O)nc21 (mixture of isomers) [Example 682, (7R)-7-ethyl-7-methyl-N-[rac-(3S)-5-methyl-4-oxo-2,3-dihydro-1,5-benzoxazepin-3-yl]-5H-furo[3,4-d]pyrimidine-2-carboxamide]
10.9 nM | CCC[C@]1(C)OCc2cnc(C(=O)N[C@H]3COc4ccccc4N(C)C3=O)nc21 (mixture of isomers) [Example 683, (7S)-7-methyl-7-propyl-N-[rac-(3S)-5-methyl-4-oxo-2,3-dihydro-1,5-benzoxazepin-3-yl]-5H-furo[3,4-d] pyrimidine-2-carboxamide]
28.2 nM | CN1C(=O)[C@@H](NC(=O)c2ncn(Cc3ccc(F)cc3)n2)CCn2nccc21 (racemic) [Example 339, 1-[(4-fluorophenyl)methyl]-N-[rac-(6S)-4-methyl-5-oxo-7,8-dihydro-6H-pyrazolo[1,5-a][1,3]diazepin-6-yl]-1,2,4-triazole-3-carboxamide]
12.8 nM | CN1C(=O)[C@@H](NC(=O)c2ncn(Cc3ccc(F)cc3F)n2)CCn2nccc21 (racemic) [Example 340, 1-[(2,4-difluorophenyl)methyl]-N-[rac-(6S)-4-methyl-5-oxo-7,8-dihydro-6H-pyrazolo[1,5-a][1,3]diazepin-6-yl]-1,2,4-triazole-3-carboxamide]
17 nM | CN1C(=O)[C@@H](NC(=O)c2ncn(Cc3ccc(F)c(F)c3)n2)CCn2nccc21 (racemic) [Example 341, 1-[(3,4-difluorophenyl)methyl]-N-[rac-(6S)-4-methyl-5-oxo-7,8-dihydro-6H-pyrazolo[1,5-a][1,3]diazepin-6-yl]-1,2,4-triazole-3-carboxamide]
10.9 nM | CN1C(=O)[C@@H](NC(=O)c2ncn(Cc3cccc(F)c3F)n2)CCn2nccc21 (racemic) [Example 342, 1-[(2,3-difluorophenyl)methyl]-N-[rac-(6S)-4-methyl-5-oxo-7,8-dihydro-6H-pyrazolo[1,5-a][1,3]diazepin-6-yl]-1,2,4-triazole-3-carboxamide]
31.1 nM | C=C(C)c1cc2n(n1)CCC(NC(=O)c1ncn(Cc3ccccc3)n1)C(=O)N2C (racemic) [Example 365, 1-benzyl-N-(2-isopropenyl-4-methyl-5-oxo-7,8-dihydro-6H-pyrazolo[1,5-a][1,3]diazepin-6-yl)-1,2,4-triazole-3-carboxamide]
100 nM | CN1C(=O)C(NC(=O)c2ncn(Cc3ccccc3)n2)CCn2nc(C(C)(F)F)cc21 (racemic) [Example 371, 1-benzyl-N-[2-(1,1-difluoroethyl)-4-methyl-5-oxo-7,8-dihydro-6H-pyrazolo[1,5-a][1,3]diazepin-6-yl]-1,2,4-triazole-3-carboxamide]
488 nM | CN1C(=O)C(NC(=O)c2ncn(Cc3ccccc3)n2)CCn2nc(C(C)(C)O)cc21 (racemic) [Example 372, 1-benzyl-N-[2-(1-hydroxy-1-methyl-ethyl)-4-methyl-5-oxo-7,8-dihydro-6H-pyrazolo[1,5-a][1,3]diazepin-6-yl]-1,2,4-triazole-3-carboxamide]
24.4 nM | CN1C(=O)[C@@H](NC(=O)c2nc3n(n2)[C@@H](c2ccccc2)CCC3)CCn2nccc21 (racemic) [Example 385, (R)—N—((S)-4-methyl-5-oxo-5,6,7,8-tetrahydro-4H-pyrazolo[1,5-a][1,3]diazepin-6-yl)-5-phenyl-5,6,7,8-tetrahydro-[1,2,4]triazolo[1,5-a]pyridine-2-carboxamide]
834 nM | CN1C(=O)[C@@H](NC(=O)c2nc3n(n2)[C@H](c2c(F)cccc2F)CCC3)CCn2nccc21 (racemic) [Example 400, (S)-5-(2,6-difluorophenyl)-N—((S)-4-methyl-5-oxo-5,6,7,8-tetrahydro-4H-pyrazolo[1,5-a][1,3]diazepin-6-yl)-5,6,7,8-tetrahydro-[1,2,4]triazolo[1,5-a]pyridine-2-carboxamide]
87.9 nM | CN1C(=O)[C@@H](NC(=O)c2nc3n(n2)[C@@H](c2c(F)cccc2F)CCC3)CCn2nccc21 (racemic) [Example 401, (R)-5-(2,6-difluorophenyl)-N—((S)-4-methyl-5-oxo-5,6,7,8-tetrahydro-4H-pyrazolo[1,5-a][1,3]diazepin-6-yl)-5,6,7,8-tetrahydro-[1,2,4]triazolo[1,5-a]pyridine-2-carboxamide]
8.7 nM | CC[C@@H]1CCCc2nc(C(=O)N[C@H]3COc4ccccc4N(C)C3=O)nn21 (racemic) [Example 402, (R)-5-ethyl-N—((S)-5-methyl-4-oxo-2,3,4,5-tetrahydrobenzo[b][1,4]oxazepin-3-yl)-5,6,7,8-tetrahydro-[1,2,4]triazolo[1,5-a]pyridine-2-carboxamide]
81.9 nM | CC[C@H]1CCCc2nc(C(=O)N[C@H]3COc4ccccc4N(C)C3=O)nn21 (racemic) [Example 403, (S)-5-ethyl-N—((S)-5-methyl-4-oxo-2,3,4,5-tetrahydrobenzo[b][1,4]oxazepin-3-yl)-5,6,7,8-tetrahydro-[1,2,4]triazolo[1,5-a]pyridine-2-carboxamide]
54.9 nM | CN1C(=O)[C@@H](NC(=O)c2nc3n(n2)[C@@H](c2cnn(C)c2)CCC3)COc2ccccc21 (racemic) [Example 407, (R)-5-(1-methyl-1H-pyrazol-4-yl)-N—((S)-5-methyl-4-oxo-2,3,4,5-tetrahydrobenzo[b][1,4]oxazepin-3-yl)-5,6,7,8-tetrahydro-[1,2,4]triazolo[1,5-a]pyridine-2-carboxamide]
565 nM | CN1C(=O)[C@@H](NC(=O)c2nc3n(n2)[C@@H](C2CCOCC2)CCC3)COc2ccccc21 (racemic) [Example 409, (R)—N—((S)-5-methyl-4-oxo-2,3,4,5-tetrahydrobenzo[b][1,4]oxazepin-3-yl)-5-(tetrahydro-2H-pyran-4-yl)-5,6,7,8-tetrahydro-[1,2,4]triazolo[1,5-a]pyridine-2-carboxamide]
121 nM | CN1C(=O)[C@@H](NC(=O)c2nc3n(n2)[C@H](C2CCOCC2)CCC3)COc2ccccc21 (racemic) [Example 410, (S)—N—((S)-5-methyl-4-oxo-2,3,4,5-tetrahydrobenzo[b][1,4]oxazepin-3-yl)-5-(tetrahydro-2H-pyran-4-yl)-5,6,7,8-tetrahydro-[1,2,4]triazolo[1,5-a]pyridine-2-carboxamide]
6500 nM | CN1C(=O)[C@@H](NC(=O)c2nc3n(n2)[C@H](c2cnn(C)c2)CCC3)COc2ccccc21 (racemic) [Example 411, (S)-5-(1-methyl-1H-pyrazol-4-yl)-N—((S)-5-methyl-4-oxo-2,3,4,5-tetrahydrobenzo[b][1,4]oxazepin-3-yl)-5,6,7,8-tetrahydro-[1,2,4]triazolo[1,5-a]pyridine-2-carboxamide]
13.6 nM | CC(C)[C@@H]1CCCc2nc(C(=O)N[C@H]3COc4ccccc4N(C)C3=O)nn21 (racemic) [Example 414, (S)-5-isopropyl-N—((S)-5-methyl-4-oxo-2,3,4,5-tetrahydrobenzo[b][1,4]oxazepin-3-yl)-5,6,7,8-tetrahydro-[1,2,4]triazolo[1,5-a]pyridine-2-carboxamide]
12.6 nM | CCC[C@H]1CCCc2nc(C(=O)N[C@H]3COc4ccccc4N(C)C3=O)nn21 (racemic) [Example 415, (S)—N—((S)-5-methyl-4-oxo-2,3,4,5-tetrahydrobenzo[b][1,4]oxazepin-3-yl)-5-propyl-5,6,7,8-tetrahydro-[1,2,4]triazolo[1,5-a]pyridine-2-carboxamide]
4.63 nM | CCC[C@@H]1CCCc2nc(C(=O)N[C@H]3COc4ccccc4N(C)C3=O)nn21 (racemic) [Example 416, (R)—N—((S)-5-methyl-4-oxo-2,3,4,5-tetrahydrobenzo[b][1,4]oxazepin-3-yl)-5-propyl-5,6,7,8-tetrahydro-[1,2,4]triazolo[1,5-a]pyridine-2-carboxamide]
13.7 nM | CN1C(=O)[C@@H](NC(=O)c2nc3n(n2)[C@H](C(F)(F)F)CCC3)COc2ccccc21 (racemic) [Example 426, (S)—N—((S)-5-methyl-4-oxo-2,3,4,5-tetrahydrobenzo[b][1,4]oxazepin-3-yl)-5-(trifluoromethyl)-5,6,7,8-tetrahydro-[1,2,4]triazolo[1,5-a]pyridine-2-carboxamide]
130 nM | Cc1ncc2n1CCC(NC(=O)c1ncn(Cc3ccccc3)n1)C(=O)N2C (racemic) [Example 557, 1-benzyl-N-(1,7-dimethyl-2-oxo-4,5-dihydro-3H-imidazo[1,5-a][1,3]diazepin-3-yl)-1,2,4-triazole-3-carboxamide]
28 nM | Cc1cc2n(n1)CC[C@H](NC(=O)c1nc3n(n1)CC[C@H]3c1ccccc1)C(=O)N2C (racemic) [Example 575, (7S)-7-phenyl-N-[(6S)-2,4-dimethyl-5-oxo-7,8-dihydro-6H-pyrazolo[1,5-a][1,3]diazepin-6-yl]-6,7-dihydro-5H-pyrrolo[1,2-b][1,2,4]triazole-2-carboxamide]
61 nM | CN1C(=O)[C@@H](NC(=O)c2ncn(Cc3ncccc3Cl)n2)CCn2nccc21 (racemic) [Example 656, 1-[(3-chloro-2-pyridyl)methyl]-N-[rac-(6S)-4-methyl-5-oxo-7,8-dihydro-6H-pyrazolo[1,5-a][1,3]diazepin-6-yl]-1,2,4-triazole-3-carboxamide]
